Results as given in publication PMC12916490 (Molecular Psychiatry, 2025).
pEC50, pKi: −log10 of the molar value. Read-outs that look alike come from different tables or passages of the source.

How the values were obtained:
h5-HT1A = target: T1, h5-HT1A (Homo sapiens, UniProt P08908); experiment: Radioligand binding, h5-HT1A receptor ([3H]8-OH-DPAT)
T1 construct: expressed in transfected cells; host or cells: HEK 293 cells (membrane preparation)
T1 sequence (P08908 1-422): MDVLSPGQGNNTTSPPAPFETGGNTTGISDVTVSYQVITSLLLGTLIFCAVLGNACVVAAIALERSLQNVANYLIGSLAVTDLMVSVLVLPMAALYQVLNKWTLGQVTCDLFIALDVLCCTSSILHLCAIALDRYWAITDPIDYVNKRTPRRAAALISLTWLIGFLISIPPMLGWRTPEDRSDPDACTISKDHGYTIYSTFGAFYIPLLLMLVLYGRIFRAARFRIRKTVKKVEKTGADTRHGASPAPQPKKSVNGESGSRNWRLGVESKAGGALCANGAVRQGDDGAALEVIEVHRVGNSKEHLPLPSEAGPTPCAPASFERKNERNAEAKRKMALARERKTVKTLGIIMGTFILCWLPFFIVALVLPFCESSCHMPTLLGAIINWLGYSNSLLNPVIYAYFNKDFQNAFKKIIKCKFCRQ

h5-HT2B = h5-HT2B (Homo sapiens, UniProt P41595); experiment: IP1 formation (Gαq-mediated signaling), h5-HT2B; assay type: cell-based; conditions: for Emax: read-out: IP1 formation Emax h5-HT2B (95% CI), normalized to maximal effect of 5-HT
Sequence of h5-HT2B (P41595 whole entry): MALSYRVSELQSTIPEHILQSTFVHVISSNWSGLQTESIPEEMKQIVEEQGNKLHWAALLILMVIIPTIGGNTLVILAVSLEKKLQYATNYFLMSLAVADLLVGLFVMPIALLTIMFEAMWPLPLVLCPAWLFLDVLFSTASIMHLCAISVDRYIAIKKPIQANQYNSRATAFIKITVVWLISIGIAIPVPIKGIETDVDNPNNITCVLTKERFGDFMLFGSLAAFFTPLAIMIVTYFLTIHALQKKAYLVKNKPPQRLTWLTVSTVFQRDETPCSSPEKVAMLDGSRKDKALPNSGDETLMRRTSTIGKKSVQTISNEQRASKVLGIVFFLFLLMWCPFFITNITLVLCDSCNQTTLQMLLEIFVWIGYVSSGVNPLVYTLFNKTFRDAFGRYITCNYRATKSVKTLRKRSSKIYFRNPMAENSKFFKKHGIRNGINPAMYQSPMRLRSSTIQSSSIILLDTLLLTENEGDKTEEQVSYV

5-HT2A receptor = 5-HT2A receptor activation bias factors (relative intrinsic activity, 5-HT reference); assay type: cell-based, human; conditions: 5-HT as reference agonist; positive = preference for numerator pathway
Method: The IC50 values from the radioligand binding assays were determined by nonlinear regression, using three independent concentration-response curves fitted to a one-site model. The Cheng-Prusoff equation was used to calculate Kᵢ values for the competing ligands. EC50 values were determined by applying nonlinear regression to concentration-response curves. Bias factors (β) were calculated based on the relative intrinsic activity approach. More detailed information can be found in the Supplementary information. Mean values for total number of HTR, change in body temperature from pre to post session (Δ°C), and total distance traveled (cm) for each drug dose were compared (p < 0.05) via Welch’s ANOVA with Dunnett’s T3 post test, comparing all doses to respective vehicle controls (0 mg/kg). Welch’s ANOVA with Dunnett’s T3 post test was also used to compare drug concentrations, but the data were compared to DOM in this case. Dose–response relationships for HTR and locomotor activities were plotted using bell-shaped curve fits, while temperature change data were plotted using four-parameter non-linear regression curve fits. The ascending phase of the HTR curve for each drug was used to determine ED50 potency values from four parameter non-linear regression fits. For combined DOM and DOAM administration, the plasma, brain tissue, and brain dialysate drug concentrations were compared using paired t-tests (p < 0.05).
Bias factors close to 0 imply no bias toward either tested signaling pathway. Positive values indicate a preference for pathway 1, and negative values indicate a preference for pathway 2, relative to the reference agonist 5-HT. […]
the β-arrestin 2 molecule in the NanoBiT system) were seeded at a density of 50,000 cells per well in poly - D-lysine-coated 96-well plates in medium containing 10% dialyzed FBS. The plate was then incubated at […]
The following day, the cells were washed twice with 150 µL HBSS, and 100 µL HBSS was subsequently added to each well. Thereafter, 25 µL of substrate (1 :20 diluted in buffer) was added, and […]
agonist solutions was added, and the signal was monitored for 2 h. Drug dilutions in HBSS were made from 10 mM stock solutions in DMSO , yielding concentration ranges from 10 µM to 10 pM. All concentrations were run in duplicate and included the appropriate solvent controls. Efficacy was normalized to 5 -HT […]
3.2.3 Arachidonic acid release
Arachidonic acid release was assessed as a marker for Gαi/o,12/13 mediated signaling.
NIH/3T3 cells stably expressing the 5 -HT2A receptor were seeded at a density of 75,000 cells per well in a poly-D-lysine-coated 48-well plate. The following day, the cells were labeled with 300 μL [ 3H]arachidonic […]
Thereafter, the cells were washed 3 times for
(10 mM) of test substances were prepared in DMSO. The final dilution series of test substances dissolved […]
Thereafter, the plate was put on ice, and 400 μL incubation supernatant per well was transferred int o scintillation vials containing scintillation fluid (Ultimagold, Perkin Elmer, Schwerzenbach, Switzerland). The remaining supernatant was removed, and the cells were lysed with 1% sodium dodecyl sulfate lysis buffer. The obtained cell lysate was transferred into scintillation vials containing scintillation fluid. Radioactivity was measured on a liquid scintillation counter (Packard 1900 TR Tri-Carb Liquid Scintillation Counter; Packard Instrument Company). Efficacy was normalized to 5-HT activity.
3.2.4 Calculation of bias factors […]
using 5-HT as the reference agonist.
RApathway = EC50, i = EC50, ref×Emax,i […]
Then, the obtained RA values were used to calculate the bias factor (β) for each pathway combination. […]
pathway 1 over pathway 2. Brown-Forsythe and Welch ANOVA analyses were applied to estimate the […]

Row | SMILES | pKi (h5-HT1A) | pEC50 (h5-HT2B) | Emax (h5-HT2B) [%] | Bias factor β Gαi/o,12/13/Gαq (5-HT2A receptor) | Bias factor β Gαi/o,12/13/β-arrestin 2 (5-HT2A receptor) | Bias factor β β-arrestin 2/Gαq (5-HT2A receptor) | pKi (h5-HT1A; read-out: Ki h5-HT1A (95% CI), receptor binding, HEK 293 membranes)
1 | COc1ccc(OC)c(CC(C)N)c1.Cl (stereo not drawn) [2,5-DMA, 2,5-Dimethoxyamphetamine hydrochloride] | 5.22 | 4.03 | 94 | 0.37 | 0.29 | 0.09 | 
2 | CCCc1cc(OC)c(CC(C)N)cc1OC.Cl (stereo not drawn) [DOPR, 4-propyl-2,5-dimethoxyamphetamine hydrochloride] | 5.40 | 6.64 | 96 | -0.53 | 0.11 | -0.64 | 
3 | COc1cc(CC(C)N)c(OC)cc1C (stereo not drawn) [DOM, 4-methyl-2,5-dimethoxyamphetamine] |  | 6.16 | 91 | 0.04 | 0.39 | -0.35 | 5.14
4 | CCCCc1cc(OC)c(CC(C)N)cc1OC (stereo not drawn) [DOBU, 4-butyl-2,5-dimethoxyamphetamine] | 4.87 | 6.24 | 122 | -0.61 | 0.25 | -0.86 | 
5 | CCc1cc(OC)c(CC(C)N)cc1OC (stereo not drawn) [DOET, 4-ethyl-2,5-dimethoxyamphetamine] | 5.24 | 6.63 | 95 | 0.16 | 0.07 | 0.08 | 
6 | CCCCCc1cc(OC)c(CC(C)N)cc1OC (stereo not drawn) [DOAM, 4-amyl-2,5-dimethoxyamphetamine] | 5.07 | 6.24 | 106 | -0.30 | 0.43 | -0.73 | 
